From patent US9839642B2, “Beta-tetrazolyl-propionic acids as metallo-beta-lactamase inhibitors” (priority 2014, dated 2017)

Tests used:
IMP-1 = IMP-1 (Serratia marcescens, UniProt P52699); test: Enzyme activity: determination of IC50, fluorescence assay with CCF2-FA substrate; format: biochemical; conditions: IMP-1 enzyme 2 pM, CCF2-FA 1.25 μM, 2 hours at 25° C.; read-out: IMP1 IC50
Summary of the method: (§1)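 Enzyme at 1 pM (NDM-1), 2 pM (IMP-1) or 30 pM (VIM-1) was incubated with inhibitor (20 μM to 0.00063 μM) and 1.25 μM CCF2-FA in 100 mM KH2PO4 pH 7, 0.005% Tween-20, 10 μM ZnSO4 for 2 hours at 25° C. Fluorescence was read at ex 405/em 460 nm; IC50 from 4-parameter fit.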

NDM-1 = NDM-1 (Klebsiella pneumoniae, UniProt C7C422); test: as above; format: biochemical; conditions: NDM-1 enzyme 1 pM, CCF2-FA 1.25 μM, 2 hours at 25° C.; read-out: NDM1 IC50
Sequence of NDM-1 (C7C422 29-270, looked up, species assumed): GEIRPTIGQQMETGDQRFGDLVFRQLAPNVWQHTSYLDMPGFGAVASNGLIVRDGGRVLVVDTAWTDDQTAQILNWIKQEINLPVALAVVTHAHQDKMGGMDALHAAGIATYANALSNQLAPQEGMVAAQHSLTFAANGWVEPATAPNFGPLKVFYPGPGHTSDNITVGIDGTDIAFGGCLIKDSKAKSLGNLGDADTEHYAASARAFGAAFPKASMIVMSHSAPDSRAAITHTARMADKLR
Summary of the method: as §1

VIM-1 = VIM-1 (Pseudomonas aeruginosa, UniProt A0A0F7KYQ8); test: as above; format: biochemical; conditions: VIM-1 enzyme 30 pM, CCF2-FA 1.25 μM, 2 hours at 25° C.; read-out: VIM1 IC50
Summary of the method: as §1

[1] = tested on: Escherichia coli expressing NDM-1 (CLB30016); test: Antibiotic potentiation activity: synergistic concentration (MITC95) with imipenem, growth by OD600; format: cell-based; conditions: E. coli CLB30016 (NDM-1), 95% inhibition of growth
Summary of the method: (§2)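 Colonies from overnight agar plates (35 °C) were suspended in saline and diluted 1:100 into 1.1× CAMHB. Inhibitor (final 200 μM to 0.195 μM) was combined with imipenem at 1 or 4 μg/ml, incubated 22–24 h at 35 °C, and absorbance read; MITC95 is the lowest inhibitor concentration giving 95% growth inhibition.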

[2] = tested on: Klebsiella pneumoniae expressing VIM-1 (IHMA599644); test: as above; format: cell-based; conditions: K. pneumoniae IHMA599644 (VIM-1), 95% inhibition of growth
Summary of the method: as §2

[3] = tested on: Serratia marcescens expressing IMP-1 (CL5741); test: as above; format: cell-based; conditions: S. marcescens CL5741 (IMP-1), 95% inhibition of growth
Summary of the method: as §2

Sequence of IMP-1 (P52699 19-246, looked up, species assumed): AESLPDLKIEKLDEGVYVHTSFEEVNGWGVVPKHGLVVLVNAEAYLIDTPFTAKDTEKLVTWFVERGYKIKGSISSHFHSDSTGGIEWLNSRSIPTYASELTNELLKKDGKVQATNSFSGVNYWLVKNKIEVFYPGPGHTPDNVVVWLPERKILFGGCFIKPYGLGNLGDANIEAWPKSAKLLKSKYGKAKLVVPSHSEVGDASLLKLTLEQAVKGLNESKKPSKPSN

CC(C)C[C@H](C(=O)O)[C@H](Cc1ccc(N2CCC(CN)CC2)nc1)c1nnn[nH]1 [Example 307, (2S)-2-[(1S)-2-{6-[4-(aminomethyl)piperidin-1-yl]pyridin-3-yl}-1-(1H-tetrazol-5-yl)ethyl]-4-methylpentanoic acid]
IC50 (IMP-1): 390 nM
IC50 (NDM-1): 120 nM
IC50 (VIM-1): 24 nM
NDM1 EC30016 MITC95 [1]: 4.7 µM
VIM1 KP599644 MITC95 [2]: 25 µM
IMP1 SM5741 MITC95 [3]: 6.2 µM

CC(C)C[C@H](C(=O)O)[C@H](Cc1ccc(N2CCC3(CC2)CNC3)nc1)c1nnn[nH]1 [Example 308, (2S)-2-[(1S)-2-[6-(2,7-diazaspiro[3.5]non-7-yl)pyridin-3-yl]-1-(1H-tetrazol-5-yl)ethyl]-4-methylpentanoic acid]
IC50 (IMP-1): 370 nM
IC50 (NDM-1): 120 nM
IC50 (VIM-1): 32 nM
NDM1 EC30016 MITC95 [1]: 3.1 µM
VIM1 KP599644 MITC95 [2]: 25 µM
IMP1 SM5741 MITC95 [3]: 9.4 µM

CC(C)C[C@H](C(=O)O)[C@H](Cc1ccc(N2CCCC(CO)C2)nc1)c1nnn[nH]1 (stereo partly drawn) [Example 309, (2S)-2-[(1S)-2-{6-[3-(hydroxymethyl)piperidin-1-yl]pyridin-3-yl}-1-(1H-tetrazol-5-yl)ethyl]-4-methylpentanoic acid]
IC50 (IMP-1): 150 nM
IC50 (NDM-1): 62 nM
IC50 (VIM-1): 24 nM
NDM1 EC30016 MITC95 [1]: 6.2 µM
VIM1 KP599644 MITC95 [2]: 75 µM
IMP1 SM5741 MITC95 [3]: 6.2 µM

CC(C)C[C@H](C(=O)O)[C@H](Cc1ccc(N2CCC(N)C2)nc1)c1nnn[nH]1 (stereo partly drawn) [Example 310, (2S)-2-[(1S)-2-[6-(3-aminopyrrolidin-1-yl)pyridin-3-yl]-1-(1H-tetrazol-5-yl)ethyl]-4-methylpentanoic acid]
IC50 (IMP-1): 1800 nM
IC50 (NDM-1): 430 nM
IC50 (VIM-1): 4.6 nM
NDM1 EC30016 MITC95 [1]: 4.7 µM
VIM1 KP599644 MITC95 [2]: 12.5 µM
IMP1 SM5741 MITC95 [3]: 25 µM

CNC(=O)C1CCCN(c2ccc(C[C@H](c3nnn[nH]3)[C@H](CC(C)C)C(=O)O)cn2)C1 (stereo partly drawn) [Example 311, (2S)-4-methyl-2-[(1S)-2-{6-[3-(methylcarbamoyl)piperidin-1-yl]pyridin-3-yl}-1-(1H-tetrazol-5-yl)ethyl] pentanoic acid]
IC50 (IMP-1): 150 nM
IC50 (NDM-1): 87 nM
IC50 (VIM-1): 26 nM
NDM1 EC30016 MITC95 [1]: 6.2 µM
VIM1 KP599644 MITC95 [2]: 100 µM
IMP1 SM5741 MITC95 [3]: 9.4 µM

CC(C)C[C@H](C(=O)O)[C@H](Cc1ccc(N2CCC(CNS(C)(=O)=O)CC2)nc1)c1nnn[nH]1 [Example 312, (2S)-4-methyl-2-[(1S)-2-[6-(4-{[(methylsulfonyl)amino]methyl}piperidin-1-yl)pyridin-3-yl]-1-(1H-tetrazol-5-yl)ethyl]pentanoic acid]
IC50 (IMP-1): 250 nM
IC50 (NDM-1): 42 nM
IC50 (VIM-1): 48 nM
NDM1 EC30016 MITC95 [1]: 9.4 µM
VIM1 KP599644 MITC95 [2]: 150 µM
IMP1 SM5741 MITC95 [3]: 31 µM

CC(C)C[C@H](C(=O)O)[C@H](Cc1ccc(N2CCC(O)C2)nc1)c1nnn[nH]1 (stereo partly drawn) [Example 313, (2S)-2-[(1S)-2-[6-(3-hydroxypyrrolidin-1-yl)pyridin-3-yl]-1-(1H-tetrazol-5-yl)ethyl]-4-methylpentanoic acid]
IC50 (IMP-1): 360 nM
IC50 (NDM-1): 75 nM
IC50 (VIM-1): 3.8 nM
NDM1 EC30016 MITC95 [1]: 1.6 µM
VIM1 KP599644 MITC95 [2]: 12.5 µM
IMP1 SM5741 MITC95 [3]: 12.5 µM

CC(C)C[C@H](C(=O)O)[C@H](Cc1ccc(N2CCC(CO)CC2)nc1)c1nnn[nH]1 [Example 314, (2S)-2-[(1S)-2-{6-[4-(hydroxymethyl)piperidin-1-yl]pyridin-3-yl}-1-(1H-tetrazol-5-yl)ethyl]-4-methylpentanoic acid]
IC50 (IMP-1): 190 nM
IC50 (NDM-1): 49 nM
IC50 (VIM-1): 16 nM
NDM1 EC30016 MITC95 [1]: 6.2 µM
VIM1 KP599644 MITC95 [2]: 75 µM
IMP1 SM5741 MITC95 [3]: 12.5 µM

CC(C)C[C@H](C(=O)O)[C@H](Cc1ccc(N2CCCC2CO)nc1)c1nnn[nH]1 (stereo partly drawn) [Example 315, (2S)-2-[(1S)-2-{6-[2-(hydroxymethyl)pyrrolidin-1-yl]pyridin-3-yl}-1-(1H-tetrazol-5-yl)ethyl]-4-methylpentanoic acid]
IC50 (IMP-1): 61 nM
IC50 (NDM-1): 67 nM
IC50 (VIM-1): 6 nM
NDM1 EC30016 MITC95 [1]: 3.1 µM
VIM1 KP599644 MITC95 [2]: 38 µM
IMP1 SM5741 MITC95 [3]: 6.2 µM

CC(C)C[C@H](C(=O)O)[C@H](Cc1ccc(N[C@@H]2CC[C@H](N)C2)nc1)c1nnn[nH]1 [Example 316, (2S)-2-[(1S)-2-(6-{[(1R,3S)-3-aminocyclopentyl]amino}pyridin-3-yl)-1-(1H-tetrazol-5-yl)ethyl]-4-methylpentanoic acid]
IC50 (IMP-1): 1200 nM
IC50 (NDM-1): 450 nM
IC50 (VIM-1): 22 nM
NDM1 EC30016 MITC95 [1]: 1.6 µM
VIM1 KP599644 MITC95 [2]: 12.5 µM
IMP1 SM5741 MITC95 [3]: 12.5 µM

CC(C)C[C@H](C(=O)O)[C@H](Cc1ccc(N[C@H]2CC[C@H](N)C2)nc1)c1nnn[nH]1 [Example 317, (2S)-2-[(1S)-2-(6-{[(1S,3S)-3-aminocyclopentyl]amino}pyridin-3-yl)-1-(1H-tetrazol-5-yl)ethyl]-4-methylpentanoic acid]
IC50 (IMP-1): 1600 nM
IC50 (NDM-1): 350 nM
IC50 (VIM-1): 14 nM
NDM1 EC30016 MITC95 [1]: 1.6 µM
VIM1 KP599644 MITC95 [2]: 18.8 µM
IMP1 SM5741 MITC95 [3]: 12.5 µM

CC(C)C[C@H](C(=O)O)[C@H](Cc1ccc(NCCC(C)N)nc1)c1nnn[nH]1 (stereo partly drawn) [Example 318, (2S)-2-[(1S)-2-{6-[(3-aminobutyl)amino]pyridin-3-yl}-1-(1H-tetrazol-5-yl)ethyl]-4-methylpentanoic acid]
IC50 (IMP-1): 2000 nM
IC50 (NDM-1): 370 nM
IC50 (VIM-1): 11 nM
NDM1 EC30016 MITC95 [1]: 1.6 µM
VIM1 KP599644 MITC95 [2]: 12.5 µM
IMP1 SM5741 MITC95 [3]: 18.8 µM

CC(C)C[C@H](C(=O)O)[C@H](Cc1ccc(NC2CNCc3ccccc32)nc1)c1nnn[nH]1 (stereo partly drawn) [Example 319, (2S)-4-methyl-2-[(1S)-2-[6-(1,2,3,4-tetrahydroisoquinolin-4-ylamino)pyridin-3-yl]-1-(1H-tetrazol-5-yl)ethyl]pentanoic acid]
IC50 (IMP-1): 1000 nM
IC50 (NDM-1): 350 nM
IC50 (VIM-1): 13 nM
NDM1 EC30016 MITC95 [1]: 12.5 µM
VIM1 KP599644 MITC95 [2]: 25 µM
IMP1 SM5741 MITC95 [3]: 18.8 µM

CC(C)C[C@H](C(=O)O)[C@H](Cc1ccc(NCCC(N)C(F)(F)F)nc1)c1nnn[nH]1 (stereo partly drawn) [Example 320, (2S)-2-[(1S)-2-{6-[(3-amino-4,4,4-trifluorobutyl)amino]pyridin-3-yl}-1-(1H-tetrazol-5-yl)ethyl]-4-methylpentanoic acid]
IC50 (IMP-1): 320 nM
IC50 (NDM-1): 83 nM
IC50 (VIM-1): 15 nM
NDM1 EC30016 MITC95 [1]: 1.6 µM
VIM1 KP599644 MITC95 [2]: 50 µM
IMP1 SM5741 MITC95 [3]: 12.5 µM

CC(C)C[C@H](C(=O)O)[C@H](Cc1ccc(NC2CCNC2)nc1)c1nnn[nH]1 (stereo partly drawn) [Example 321, (2S)-4-methyl-2-[(1S)-2-[6-(pyrrolidin-3-ylamino)pyridin-3-yl]-1-(1H-tetrazol-5-yl)ethyl]pentanoic acid]
IC50 (IMP-1): 1600 nM
IC50 (NDM-1): 440 nM
IC50 (VIM-1): 5.1 nM
NDM1 EC30016 MITC95 [1]: 3.1 µM
VIM1 KP599644 MITC95 [2]: 18.8 µM
IMP1 SM5741 MITC95 [3]: 18.8 µM

CC(C)C[C@H](C(=O)O)[C@H](Cc1ccc(N2CCCC(C(C)(C)N)C2)nc1)c1nnn[nH]1 (stereo partly drawn) [Example 322, (2S)-2-[(1S)-2-{6-[3-(1-amino-1-methylethyl)piperidin-1-yl]pyridin-3-yl}-1-(1H-tetrazol-5-yl)ethyl]-4-methylpentanoic acid]
IC50 (IMP-1): 550 nM
IC50 (NDM-1): 340 nM
IC50 (VIM-1): 11 nM
NDM1 EC30016 MITC95 [1]: 18.8 µM
VIM1 KP599644 MITC95 [2]: 50 µM
IMP1 SM5741 MITC95 [3]: 25 µM

CC(C)C[C@H](C(=O)O)[C@H](Cc1ccc(NCC2CNCCC2O)nc1)c1nnn[nH]1 (stereo partly drawn) [Example 323, (2S)-2-[(1S)-2-(6-{[(4-hydroxypiperidin-3-yl)methyl]amino}pyridin-3-yl)-1-(1H-tetrazol-5-yl)ethyl]-4-methylpentanoic acid]
IC50 (IMP-1): 930 nM
IC50 (NDM-1): 120 nM
IC50 (VIM-1): 17 nM
NDM1 EC30016 MITC95 [1]: 1.6 µM
VIM1 KP599644 MITC95 [2]: 18.8 µM
IMP1 SM5741 MITC95 [3]: 6.2 µM

CC(C)C[C@H](C(=O)O)[C@H](Cc1ccc(N2CC(C)(CN)C2)nc1)c1nnn[nH]1 [Example 325, (2S)-2-[(1S)-2-{6-[3-(aminomethyl)-3-methylazetidin-1-yl]pyridin-3-yl}-1-(1H-tetrazol-5-yl)ethyl]-4-methylpentanoic acid]
IC50 (IMP-1): 4400 nM
IC50 (NDM-1): 1100 nM
IC50 (VIM-1): 36 nM
NDM1 EC30016 MITC95 [1]: 12.5 µM
VIM1 KP599644 MITC95 [2]: 75 µM
IMP1 SM5741 MITC95 [3]: 75 µM

CC(C)C[C@H](C(=O)O)[C@H](Cc1ccc(N2CC(CCN)C2)nc1)c1nnn[nH]1 [Example 326, (2S)-2-[(1S)-2-{6-[3-(2-aminoethyl)azetidin-1-yl]pyridin-3-yl}-1-(1H-tetrazol-5-yl)ethyl]-4-methylpentanoic acid]
IC50 (IMP-1): > 20000 nM
IC50 (NDM-1): 6400 nM
IC50 (VIM-1): 29 nM
NDM1 EC30016 MITC95 [1]: 50 µM
VIM1 KP599644 MITC95 [2]: 6.2 µM
IMP1 SM5741 MITC95 [3]: >200 µM
